Here are results for 1 compound from paper PMC9354243, “The Role of Tryptophan in π Interactions in Proteins: An Experimental Approach” (Journal of the American Chemical Society, 2022).

In assay [1] the target is T1, RibU W97Y labeled with 5,7diFW (Lactococcus lactis subsp. cremoris, UniProt D8KIE9, W97Y).
T1 construct: His10; made in house; host or cells: Lactococcus lactis Trp auxotroph NZ9000-trp with pMG36e-trpRS
Kind of assay: Fluorescence titration of RibU with RBF, 5,7diFW variant. In kind it is binding. Here is the method:
(§1) Fluorescence titration experiments of the different RibU constructs with RBF at 20 °C allowed estimation of the impact of W68 fluorination or 5-methylation on the binding affinity (Figure 3 and Table 5).
(§2) Figure 3 Titration of Trp analog labeled RibU W97Y proteins with RBF. The RBF fluorescence was measured at the indicated RBF concentrations in the absence (triangles) or presence (dots) of the W97Y RibU variant (see insets). The difference between these two signals were calculated to build the titration curve. This curve was used to compute the RBF Kd (see Experimental Section in the Supporting Information). […]
(§3) Binding assays – Fluorescence titrations of RibU with RBF.
(§4) The concentration of the riboflavin stock was established using a Jasco V-650 spectrophotometer with an ε435 of 12600 M-1.cm-1 The concentration of RibU-His was calculated using a Nanodrop (Thermo […]
(§5) Riboflavin was excited at 435 nm and emission was recorded between 450 nm and 700 nm using a FluoroLog 322 Spectrofluorometer (Jobin Yvon). […] Titration experiments were performed in a 1 mL quartz cuvette at 20 °C as described.13 In brief, purified and desalted RibU protein in gel filtration buffer was titrated with RBF and after each addition the emission spectrum was recorded twice, corrected for buffer emission and instrument response and integrated. […]

Assay [2] deals with T2, RibU W97Y labeled with 5,6,7triFW (Lactococcus lactis subsp. cremoris, UniProt D8KIE9, W97Y).
T2 construct: His10; made in house; host or cells: Lactococcus lactis Trp auxotroph NZ9000-trp with pMG36e-trpRS
Kind of assay: Fluorescence titration of RibU with RBF, 5,6,7triFW variant. Type of assay: binding. Here is the method: as §1, §2, §3, §4, §5

The target of assay [3] is T3, RibU W97Y labeled with 5FW (Lactococcus lactis subsp. cremoris, UniProt D8KIE9, W97Y).
T3 construct: His10; made in house; host or cells: Lactococcus lactis Trp auxotroph NZ9000-trp with pMG36e-trpRS
As to the kind of experiment: Fluorescence titration of RibU with RBF, 5FW variant. In kind it is binding. How it is done: as §1, §2, §3, §4, §5

The subject of another assay is RibU W68Y mutant. Details: method as in PMID 17289680. To be noted: W68Y mutant versus RibU; cited from earlier work.

T2 sequence (D8KIE9 whole entry W97Y): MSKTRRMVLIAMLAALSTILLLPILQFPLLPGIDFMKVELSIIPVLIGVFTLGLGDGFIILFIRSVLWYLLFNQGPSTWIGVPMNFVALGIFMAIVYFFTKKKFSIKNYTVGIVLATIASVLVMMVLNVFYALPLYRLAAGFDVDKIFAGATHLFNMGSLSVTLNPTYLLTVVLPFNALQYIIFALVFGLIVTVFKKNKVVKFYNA
T3 sequence (D8KIE9 whole entry W97Y): as above
T1 sequence (D8KIE9 whole entry W97Y): as above

For orientation: Kd means the concentration at which binding is half-saturated. As to `Cc1cc2nc3c(=O)[nH]c(=O)nc-3n(C[C@H](O)[C@H](O)[C@H](O)CO)c2cc1C` [RBF, riboflavin], the Kd amounted to 8.2 ± 0.9 nM in assay [1], 24.9 ± 2.7 nM in assay [2] and 5.4 ± 1 nM in assay [3]. Also, in assay [2] (20 °C, up to three fluoro-atoms introduced), the “Fold lowering of the affinity by progressive fluorination of W68” value is 15 fold. Further, the “Fold drop of RBF binding affinity” value with RibU W68Y mutant is roughly 100 fold.
